Measured values from ChEMBL document CHEMBL1201862, “PubChem BioAssay data set” (2004).
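96-well plates; 48 h exposure; 5 concentrations. Endpoints by linear interpolation between flanking doses. Not reached: highest tested concentration assigned. Abbreviation: GI50, concentration required for 50% inhibition of growth.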 Activity calls are given as the source filed them. Cut-off read from the data, not from the text of the source: active = GI50 up to about 1.1 µM and inactive = higher.

What was measured:
Test in all cases: NCI tumour cell line growth inhibition, 48 h
A549 = test system: A549
ACHN = test system: ACHN
BT-549 = test system: BT-549
CCRF-CEM = test system: CCRF-CEM
DU-145 = test system: DU-145
EKVX = test system: EKVX
HCC 2998 = test system: HCC 2998
HOP-62 = test system: HOP-62
MDA-MB-435 = test system: MDA-MB-435
NCI-H226 = test system: NCI-H226
NCI-H23 = test system: NCI-H23
NCI-H460 = test system: NCI-H460
NCI/ADR-RES = test system: NCI/ADR-RES
PC-3 = test system: PC-3
SK-MEL-2 = test system: SK-MEL-2
SK-MEL-5 = test system: SK-MEL-5
U-251 = test system: U-251
UO-31 = test system: UO-31
M14 = test system: M14
NCI-H522 = test system: NCI-H522

Measured: GI50

CCOC(=O)/C=C(\C(=O)OCC)n1cc(C)c(=O)n(Cc2cn(COCCOC(C)=O)nn2)c1=O
inactive: A549 27.5 µM | ACHN 7.62 µM | BT-549 10.6 µM | CCRF-CEM 1.85 µM | DU-145 34.9 µM | EKVX 10.5 µM | HCC 2998 22.9 µM | HOP-62 20.3 µM | MDA-MB-435 6.55 µM | NCI-H226 > 10 µM | NCI-H23 14.7 µM | NCI-H460 10.2 µM | NCI/ADR-RES 22.6 µM | PC-3 20 µM | SK-MEL-2 17.3 µM | SK-MEL-5 20.9 µM | U-251 16.8 µM | UO-31 14 µM

Nc1cc2c3c(cccc3c1)C(=O)N(c1ccc(OCCN3CCCCC3)cc1)C2=O
inactive: A549 13.9 µM | ACHN 15.9 µM | BT-549 19.7 µM | CCRF-CEM 21.2 µM | DU-145 16.9 µM | EKVX 20.4 µM | HCC 2998 19.9 µM | HOP-62 15.8 µM | M14 15.5 µM | MDA-MB-435 24.7 µM | NCI-H226 18.6 µM | NCI-H23 16.1 µM | NCI-H522 18.5 µM | NCI/ADR-RES 19.2 µM | PC-3 17.4 µM | SK-MEL-2 17.2 µM | SK-MEL-5 15.3 µM | U-251 22 µM | UO-31 9.73 µM

COC(=O)C1=C(O)C(C(=O)OC)[C@]2(O)[C@H](C(=O)OC)[C@H]1C[C@@H](c1ccc(C(F)(F)F)cc1)[C@H]2C(=O)OC (stereo partly specified)
inactive: A549 3.74 µM | ACHN 3.46 µM | BT-549 3.25 µM | DU-145 4.24 µM | EKVX 10.6 µM | HCC 2998 3.47 µM | HOP-62 6.87 µM | M14 3.81 µM | MDA-MB-435 3.36 µM | NCI-H226 1.33 µM | NCI-H23 3.58 µM | NCI-H460 3.34 µM | NCI/ADR-RES 2.33 µM | PC-3 3.48 µM | SK-MEL-2 2.79 µM | SK-MEL-5 2.49 µM | U-251 2.41 µM | UO-31 2.84 µM

CCC(C)C(NC(=O)C(CCCC[N+](=N)N)NC(=O)C(CCCC[N+](=N)N)NC(=O)c1ccc(OC)cc1)C(=O)NC(CCCC[N+](=N)N)C(=O)N1CCCC1C(=O)NC(CCCCN)C(=O)NC(CC(C)C)C(N)=O (stereo unspecified)
inactive: A549 > 100 µM | ACHN > 100 µM | BT-549 > 100 µM | CCRF-CEM > 100 µM | DU-145 > 100 µM | EKVX > 100 µM | HCC 2998 > 100 µM | HOP-62 > 100 µM | M14 > 100 µM | MDA-MB-435 > 100 µM | NCI-H226 > 100 µM | NCI-H23 > 100 µM | NCI-H460 > 100 µM | NCI-H522 > 100 µM | NCI/ADR-RES > 100 µM | PC-3 > 100 µM | SK-MEL-5 > 100 µM | U-251 > 100 µM | UO-31 > 100 µM

C=C(CO)C(=O)OC1CC(=C)C2CC(O)C(C)C2C2OC(=O)C(=C)C12 (stereo unspecified)
inactive: A549 28.8 µM | ACHN 18.4 µM | BT-549 14.9 µM | CCRF-CEM 31.2 µM | DU-145 42.5 µM | EKVX 40.9 µM | HCC 2998 21.7 µM | HOP-62 19.4 µM | M14 17.3 µM | MDA-MB-435 21.2 µM | NCI-H23 > 100 µM | NCI-H460 35.8 µM | NCI-H522 26.3 µM | NCI/ADR-RES 44.7 µM | PC-3 31.6 µM | SK-MEL-2 16.1 µM | SK-MEL-5 24.3 µM | U-251 26.7 µM | UO-31 16.2 µM

CCOC(=O)c1sc2nc(SC)nc3c2c1NCN3c1ccc2c(c1)OCO2
inactive: A549 7.83 µM | ACHN 5.94 µM | BT-549 30.1 µM | CCRF-CEM 14.6 µM | DU-145 12.1 µM | EKVX 42.2 µM | HCC 2998 44.7 µM | HOP-62 5.93 µM | M14 15.5 µM | MDA-MB-435 14.8 µM | NCI-H226 25.8 µM | NCI-H23 41.9 µM | NCI-H522 31.1 µM | NCI/ADR-RES 8.77 µM | PC-3 14.3 µM | SK-MEL-2 18.3 µM | SK-MEL-5 67.5 µM | U-251 7.03 µM | UO-31 15.5 µM

OC12C3C4CC5C(C4[C@@H]1Br)C2[C@@](O)(c1c(F)c(F)c(F)c(F)c1F)C53 (stereo partly specified)
inactive: A549 33.7 µM | ACHN 51.1 µM | BT-549 39.4 µM | CCRF-CEM 21.7 µM | DU-145 41.8 µM | EKVX 27.1 µM | HCC 2998 36.5 µM | HOP-62 35.1 µM | M14 37 µM | MDA-MB-435 37.6 µM | NCI-H23 31.7 µM | NCI-H460 33.7 µM | NCI-H522 29.6 µM | NCI/ADR-RES 27.2 µM | PC-3 23.3 µM | SK-MEL-2 24.5 µM | SK-MEL-5 26.2 µM | U-251 38 µM | UO-31 29.8 µM
